Test results reported in ChEMBL document CHEMBL5584311, “Antiviral Chlorinated Drimane Meroterpenoids from the Fungus Talaromyces pinophilus LD-7 and Their Biosynthetic Pathway” (J Nat Prod, 2024).

Tests used:
HL-60 = test: Cytotoxicity against human HL-60 cells; type: functional
K562 = test: Cytotoxicity against human K562 cells; type: functional
MGC-803 = test: Cytotoxicity against human MGC-803 cells; type: functional
Bel-7402 = test: Cytotoxicity against human Bel-7402 cells; type: functional
SH-SY5Y = test: Cytotoxicity against human SH-SY5Y cells; type: functional
HCT-116 = test: Cytotoxicity against human HCT-116 cells; type: functional
MDA-MB-231 = test: Cytotoxicity against human MDA-MB-231 cells; type: functional
A549 = test: Cytotoxicity against human A549 cells; type: functional
[1] = Cytotoxicity against human MCF7/ADM cells; type: functional
[2] = Cytotoxicity against human HO-8910 cells; type: functional
U-87 MG = test: Cytotoxicity against human U87 cells; type: functional, U-87MG ATCC
NCI-H1975 = test: Cytotoxicity against human NCI-H1975 cells; type: functional
[3] = tested on: Vesicular stomatitis virus; test: Antiviral activity against Vesicular stomatitis virus infected in African green monkey Vero cells assessed as inhibition of cytopathic effect pre-infected with cells for 12 hrs followed by viral infection and measured after 24 hrs by fluorescence based CPE reduction method; type: functional, organism-based
Hepatitis C virus = test: Antiviral activity against HCV infected in human Huh7.5 cells stably expressing firefly luciferase by microplate luminometer based analysis; type: functional, organism-based, Hepacivirus hominis

## C[C@@H]1Cc2c3c(cc(O)c2C(=O)O1)O[C@]1(C)CCC[C@](C)([C@H]2C[C@@H](O)C2(C)C)[C@H]1C3
HL-60
  CC50: 3.35 µM
K562
  CC50: 3.35 µM
MGC-803
  CC50: 3.35 µM
Bel-7402
  CC50: 3.35 µM
SH-SY5Y
  CC50: 3.35 µM
HCT-116
  CC50: 3.35 µM
MDA-MB-231
  CC50: 3.35 µM
A549
  CC50: 3.35 µM
[1]
  CC50: 3.35 µM
[2]
  CC50: 3.35 µM
U-87 MG
  CC50: 3.35 µM
NCI-H1975
  CC50: 3.35 µM

## CC(C)C1=CC[C@@]2(C)C(=O)CC[C@@]3(C)Oc4cc(O)c5c(c4C[C@@]32O1)[C@@H](O)[C@@H](C)OC5=O
[3]
  IC50: 0.97 µM

## CC(C)[C@@]12CC[C@]3(C)[C@]4(Cc5c(cc(O)c6c5[C@@H](O)[C@@H](C)OC6=O)O[C@]4(C)CC[C@]3(O)O1)O2
[3]
  IC50: 0.43 µM

## CC(C)[C@@]12CC[C@]3(C)[C@]4(Cc5c6c(c(O)c(Cl)c5O[C@]4(C)CC[C@]3(O)O1)C(=O)O[C@H](C)C6)O2
[3]
  IC50: 0.18 µM

## CC(=O)O[C@@H]1c2c3c(cc(O)c2C(=O)O[C@@H]1C)O[C@]1(C)CC[C@@H]2O[C@@]4(C(C)C)CC[C@]2(C)[C@]1(C3)O4
[3]
  IC50: 0.49 µM

## CC1=C(O)C(=O)[C@@]23C(C)CC[C@@H]2[C@H](C)CO[C@]32Oc3cc(O)cc(CO)c3C=C12 (stereo not given in full)
Hepatitis C virus
  IC50: 9.5 µM

## CC(=O)O[C@@H]1c2c3c(cc(O)c2C(=O)O[C@@H]1C)O[C@]1(C)CCC(=O)[C@]2(C)CC=C(C(C)C)O[C@]12C3
[3]
  IC50: 0.32 µM

## CC(=O)O[C@@H]1c2c3c(cc(O)c2C(=O)O[C@@H]1C)O[C@]1(C)CC[C@]2(O)C(C)(C)[C@@]4(O)CC[C@]2(C)[C@]1(C3)O4
[3]
  IC50: 0.19 µM

## CC(C)[C@]12CC[C@@]3(C)[C@H](CC[C@@]4(C)Oc5cc(O)c6c(c5C[C@@]43O1)C[C@@H](C)OC6=O)O2
[3]
  IC50: 0.91 µM

## C[C@@H]1Cc2c3c(cc(O)c2C(=O)O1)O[C@]1(C)CC[C@H]2C(C)(C)C(=O)CC[C@]2(C)[C@H]1C3
[3]
  IC50: 0.023 µM

## CC(=O)O[C@@H]1c2c3c(c(Cl)c(O)c2C(=O)O[C@@H]1C)O[C@]1(C)CCC(=O)[C@]2(C)CC=C(C(C)C)O[C@]12C3
[3]
  IC50: 0.28 µM

## CC(=O)O[C@@H]1c2c3c(c(Cl)c(O)c2C(=O)O[C@@H]1C)O[C@]1(C)CC[C@@H]2O[C@@]4(C(C)C)CC[C@]2(C)[C@]1(C3)O4
[3]
  IC50: 0.082 µM

## C[C@@H]1Cc2c3c(cc(O)c2C(=O)O1)O[C@]1(C)CC[C@]2(O)C(C)(C)[C@@]4(O)CC[C@]2(C)[C@]1(C3)O4
[3]
  IC50: 0.13 µM

## C[C@@H]1Cc2c3c(c(Cl)c(O)c2C(=O)O1)O[C@]1(C)CC[C@H]2C(C)(C)C(=O)CC[C@]2(C)[C@@]1(O)C3
[3]
  IC50: 0.015 µM

## C[C@@H]1Cc2c3c(c(Cl)c(O)c2C(=O)O1)O[C@]1(C)CC[C@]2(O)C(C)(C)[C@@]4(O)CC[C@]2(C)[C@]1(C3)O4
[3]
  IC50: 0.083 µM

## CC(C)[C@]12CC[C@@]3(C)[C@H](CC[C@@]4(C)Oc5c(Cl)c(O)c6c(c5C[C@@]43O1)C[C@@H](C)OC6=O)O2
[3]
  IC50: 0.018 µM

## CC(=O)O[C@@H]1c2c3c(cc(O)c2C(=O)O[C@@H]1C)O[C@]1(C)CC[C@]2(O)O[C@@]4(C(C)C)CC[C@]2(C)[C@]1(C3)O4
[3]
  IC50: 0.57 µM

## CC(=O)O[C@@H]1c2c3c(c(Cl)c(O)c2C(=O)O[C@@H]1C)O[C@]1(C)CC[C@]2(O)O[C@@]4(C(C)C)CC[C@]2(C)[C@]1(C3)O4
[3]
  IC50: 0.26 µM

## NC(=O)c1ncn([C@@H]2O[C@H](CO)[C@@H](O)[C@H]2O)n1 [RIBAVIRIN]
[3]
  IC50: 0.046 µM
